Assay results: patent publication US10259847B2, “Beta-hairpin peptidomimetics” (POLYPHOR AG, priority 2014, dated 2019)
Where two headings read alike, the source gives them in different places. *1 amine or outer side, *2 acyl side, *3 side chain or, on linkers, in order; H or OH if unused. Where a SMILES comes first, the peptide text is derived from it. Bridges are numbered along the chain shown (N, C = ends). [ ]: non-standard residue; d: D form. Tle = CC(C)(C)[C@H](N)C(=O)O; dDab = NCC[C@@H](N)C(=O)O; Orn = NCCC[C@H](N)C(=O)O; Dab = NCC[C@H](N)C(=O)O; Dap = NC[C@H](N)C(=O)O; CO = O=C([*:1])[*:2]

Assays:
Assay type in all cases: cell-based
[1] = tested on: Klebsiella pneumoniae ATCC 13883
Method: (§1) Stock solutions were kept at +4° C., light protected.
(§2) The selective antimicrobial activities of the peptides were determined in 96-well plates (Greiner, polystyrene) by the standard NCCLS broth microdilution method (National Committee for Clinical Laboratory Standards 1993. Methods for dilution antimicrobial susceptibility tests for bacteria that grow aerobically, 3rd ed. Approved standard M7-A6; National Committee for Clinical laboratory standards, Wayne, Pa.) with slight modifications. Inocula of the microorganisms were diluted into Mueller-Hinton II (MH, cation adjusted) broth and compared with a 0.5 McFarland standard to give appr. 10^6 colony forming units (CFU)/mL. Aliquots (90 μl) of inoculate were added to 10 μl of MH broth+P-80 (Polysorbate 80, 0.002% final concentration) containing the peptide in serial two-fold dilutions. The following microorganisms were used to determine antibiotic selectivity of the peptides: Escherichia coli ATCC 25922, Klebsiella pneumoniae ATCC 13883 and Acinetobacter baumannii DSM 30008.

[2] = tested on: Acinetobacter baumannii DSM 30008
Method: as §1, §2

[3] = tested on: Escherichia coli ATCC 25922
Method: as §1, §2

[4] = tested on: human red blood cells (hRBC); experiment: Hemolysis of human red blood cells
Method: as §1
Percent hemolysis was calculated as follows: (OD540peptide/OD540H2O)×100%.

[5] = Mueller-Hinton broth II, 0.002% P-80, 18-20 hours at 35° C.

SMILES	Klebsiella pneumoniae ATCC 13883 MIC ([1]; ATCC 13883)	Acinetobacter baumannii DSM 30008 MIC ([2]; DSM 30008)	Escherichia coli ATCC 25922 MIC ([3]; ATCC 25922)	Hemolysis at 100 μg/mL ([4]; red cells of human, 1 h, 100)	Klebsiella pneumoniae ATCC 13883 MIC [1, 5]	Acinetobacter baumannii DSM 30008 MIC [2, 5]	Escherichia coli ATCC 25922 MIC [3, 5]	Hemolysis at 100 μg/mL ([4]; 100 μg/mL, 20% hRBC (v/v), 1 h at 37° C.)
CC(C)[C@@H]1NC(=O)[C@@H]2CCCN2C(=O)[C@H]2CCCN2C(=O)[C@H](CO)NC(=O)[C@@H]2CNC(=O)NC[C@H](NC1=O)C(=O)N[C@@H](Cc1ccc(O)cc1)C(=O)N[C@@H](CCN)C(=O)N[C@@H](CN)C(=O)N[C@H](CCN)C(=O)N[C@@H](CCN)C(=O)N[C@@H](Cc1c[nH]c3ccccc13)C(=O)N[C@@H](CCN)C(=O)N[C@@H](C(C)(C)C)C(=O)N2 [Example 40, cyclo(-Val-Dap-Tyr-Dab-Dap-^DDab-Dab-Trp-Dab-tBuGly-Dap-Ser-^DPro-Pro-)] (cyclo(V[Dap]Y[Dab][Dap][dDab][Dab]W[Dab][Tle][Dap]S[dP]P); linker 2-11 via CO)	0.25 µg/mL	1 µg/mL	0.25 µg/mL	2%	–	–	–	–
CC(C)C[C@@H]1NC(=O)[C@@H]2CCCN2C(=O)[C@H]2CCCN2C(=O)[C@H](CO)NC(=O)[C@@H]2CCNC(=O)CC[C@H](NC1=O)C(=O)N[C@@H](Cc1ccc(O)cc1)C(=O)N[C@@H](CCN)C(=O)N[C@@H](CCCN)C(=O)N[C@H](CCN)C(=O)N[C@@H](CCN)C(=O)N[C@@H](Cc1c[nH]c3ccccc13)C(=O)N[C@@H](CCN)C(=O)N[C@@H](C(C)(C)C)C(=O)N2 [Example 19, cyclo(-Leu-Glu-Tyr-Dab-Orn-^DDab-Dab-Trp-Dab-tBuGly-Dab-Ser-^DPro-Pro-)] (HELM PEPTIDE1{L.E.Y.[Dab].[Orn].[NCC[C@@H](N[*:1])C(=O)[*:2]].[Dab].W.[Dab].[CC(C)(C)[C@H](N[*:1])C(=O)[*:2]].[Dab].S.[dP].P}$PEPTIDE1,PEPTIDE1,2:R3-11:R3|PEPTIDE1,PEPTIDE1,1:R1-14:R2$$$V2.0)	8 µg/mL	3 µg/mL	3 µg/mL	0%	–	–	–	–
CC(C)[C@@H]1NC(=O)[C@@H]2CCCN2C(=O)[C@H]2CCCN2C(=O)[C@H]([C@@H](C)O)NC(=O)[C@@H]2CSSC[C@H](NC1=O)C(=O)N[C@@H](Cc1ccc(O)cc1)C(=O)N[C@@H](CCN)C(=O)N[C@@H](CN)C(=O)N[C@@H](CCN)C(=O)N[C@@H](CCN)C(=O)N[C@@H](Cc1c[nH]c3ccccc13)C(=O)N[C@@H](CCN)C(=O)N[C@@H](C(C)(C)C)C(=O)N2 [Example 8, cyclo(-Val-Cys-Tyr-Dab-Dap-Dab-Dab-Trp-Dab-tBuGly-Cys-Thr-^DPro-Pro-)] (HELM PEPTIDE1{V.C.Y.[Dab].[NC[C@H](N[*:1])C(=O)[*:2]].[Dab].[Dab].W.[Dab].[CC(C)(C)[C@H](N[*:1])C(=O)[*:2]].C.T.[dP].P}$PEPTIDE1,PEPTIDE1,2:R3-11:R3|PEPTIDE1,PEPTIDE1,1:R1-14:R2$$$V2.0)	–	–	–	–	0.5 µg/mL	2 µg/mL	1 µg/mL	1%
CC(C)C[C@@H]1NC(=O)[C@@H]2CCCN2C(=O)[C@H]2CCCN2C(=O)[C@H](CO)NC(=O)[C@@H]2CC(=O)NCC[C@H](NC1=O)C(=O)N[C@@H](Cc1ccc(O)cc1)C(=O)N[C@@H](CCN)C(=O)N[C@@H](CCCN)C(=O)N[C@@H](CCN)C(=O)N[C@@H](CCN)C(=O)N[C@@H](Cc1c[nH]c3ccccc13)C(=O)N[C@@H](CCN)C(=O)N[C@@H](C(C)(C)C)C(=O)N2 [Example 32, cyclo(-Leu-Dab-Tyr-Dab-Orn-Dab-Dab-Trp-Dab-tBuGly-Asp-Ser-^DPro-Pro-)] (HELM PEPTIDE1{L.[Dab].Y.[Dab].[Orn].[Dab].[Dab].W.[Dab].[CC(C)(C)[C@H](N[*:1])C(=O)[*:2]].D.S.[dP].P}$PEPTIDE1,PEPTIDE1,2:R3-11:R3|PEPTIDE1,PEPTIDE1,1:R1-14:R2$$$V2.0)	0.5 µg/mL	0.5 µg/mL	0.5 µg/mL	1%	–	–	–	–
CC[C@H](C)[C@@H]1NC(=O)[C@@H]2CCCN2C(=O)[C@H]2CCCN2C(=O)[C@H](Cc2ccc(O)cc2)NC(=O)[C@@H]2CSSC[C@H](NC1=O)C(=O)N[C@@H](Cc1ccc(O)cc1)C(=O)N[C@@H](CCN)C(=O)N[C@@H](CCCN)C(=O)N[C@H](CCN)C(=O)N[C@@H](CCN)C(=O)N[C@@H](CC(C)C)C(=O)N[C@@H](CCN)C(=O)N[C@@H](C(C)C)C(=O)N2 [Example 7, cyclo(-Ile-Cys-Tyr-Dab-Orn-^DDab-Dab-Leu-Dab-Val-Cys-Tyr-^DPro-Pro-)] (HELM PEPTIDE1{I.C.Y.[Dab].[Orn].[NCC[C@@H](N[*:1])C(=O)[*:2]].[Dab].L.[Dab].V.C.Y.[dP].P}$PEPTIDE1,PEPTIDE1,2:R3-11:R3|PEPTIDE1,PEPTIDE1,1:R1-14:R2$$$V2.0)	0.25 µg/mL	1 µg/mL	0.5 µg/mL	11%	–	–	–	–
CC(C)C[C@@H]1NC(=O)[C@@H]2CCCN2C(=O)[C@H]2CCCN2C(=O)[C@H](CO)NC(=O)[C@@H]2CNC(=O)C[C@H](NC1=O)C(=O)N[C@@H](Cc1ccc(O)cc1)C(=O)N[C@@H](CCN)C(=O)N[C@@H](CCCN)C(=O)N[C@H](CCN)C(=O)N[C@@H](CCN)C(=O)N[C@@H](Cc1c[nH]c3ccccc13)C(=O)N[C@@H](CCN)C(=O)N[C@@H](C(C)(C)C)C(=O)N2 [Example 21, cyclo(-Leu-Asp-Tyr-Dab-Orn-^DDab-Dab-Trp-Dab-tBuGly-Dap-Ser-^DPro-Pro-)] (cyclo(LDY[Dab][Orn][dDab][Dab]W[Dab][Tle][Dap]S[dP]P); lactam 2-11)	0.5 µg/mL	4 µg/mL	2 µg/mL	1%	–	–	–	–
CC(C)C[C@@H]1NC(=O)[C@@H]2CCCN2C(=O)[C@H]2CCCN2C(=O)[C@H](CO)NC(=O)[C@@H]2CNC(=O)CC[C@H](NC1=O)C(=O)N[C@@H](Cc1ccc(O)cc1)C(=O)N[C@@H](CCN)C(=O)N[C@@H](CCCN)C(=O)N[C@H](CCN)C(=O)N[C@@H](CCN)C(=O)N[C@@H](Cc1c[nH]c3ccccc13)C(=O)N[C@@H](CCN)C(=O)N[C@@H](C(C)(C)C)C(=O)N2 [Example 34, cyclo(-Leu-Glu-Tyr-Dab-Orn-^DDab-Dab-Trp-Dab-tBuGly-Dap-Ser-^DPro-Pro-)] (cyclo(LEY[Dab][Orn][dDab][Dab]W[Dab][Tle][Dap]S[dP]P); lactam 2-11)	0.5 µg/mL	1 µg/mL	0.5 µg/mL	1%	–	–	–	–
CC(C)C[C@@H]1NC(=O)[C@@H]2CCCN2C(=O)[C@H]2CCCN2C(=O)[C@H](CO)NC(=O)[C@@H]2CC(=O)NCCCC[C@H](NC1=O)C(=O)N[C@@H](Cc1ccc(O)cc1)C(=O)N[C@@H](CCN)C(=O)N[C@@H](CCCN)C(=O)N[C@H](CCN)C(=O)N[C@@H](CCN)C(=O)N[C@@H](Cc1c[nH]c3ccccc13)C(=O)N[C@@H](CCN)C(=O)N[C@@H](C(C)(C)C)C(=O)N2 [Example 35, cyclo(-Leu-Lys-Tyr-Dab-Orn-^DDab-Dab-Trp-Dab-tBuGly-Asp-Ser-^DPro-Pro-)] (HELM PEPTIDE1{L.K.Y.[Dab].[Orn].[NCC[C@@H](N[*:1])C(=O)[*:2]].[Dab].W.[Dab].[CC(C)(C)[C@H](N[*:1])C(=O)[*:2]].D.S.[dP].P}$PEPTIDE1,PEPTIDE1,2:R3-11:R3|PEPTIDE1,PEPTIDE1,1:R1-14:R2$$$V2.0)	2 µg/mL	1 µg/mL	0.5 µg/mL	0%	–	–	–	–
